A short description of assay [1]: Selectivity ratio of Ki for delta opioid receptor to Ki for kappa opioid receptor.
The target in assay [2] is Mu-type opioid receptor (Homo sapiens, UniProt P35372). As to the kind of experiment: Displacement of [3H]DAMGO from mu opioid receptor.
Assay [3] is described as follows: Selectivity ratio of Ki for mu opioid receptor to Ki for kappa opioid receptor.
Assay [4] has as its target Delta-type opioid receptor (Homo sapiens, UniProt P41143). As to the kind of experiment: Displacement of [3H]DADLE from delta opioid receptor.
Assay [5] deals with T1, Kappa-type opioid receptor (Homo sapiens, UniProt P41145). In words: Displacement of [3H]U69593 from kappa opioid receptor.
Assay [6] has as its target T1, Kappa-type opioid receptor. In words: Agonist activity at kappa opioid receptor assessed as stimulation of [35S]GTPgammaS binding relative to U50488. The format is functional.

A value given as a limit tells only on which side of the number the result lay.

The text below walks through data of ChEMBL document CHEMBL1773062, “Opioid receptor probes derived from cycloaddition of the hallucinogen natural product salvinorin A” (J Nat Prod, 2011).

Chain of Delta-type opioid receptor (P41143 whole entry): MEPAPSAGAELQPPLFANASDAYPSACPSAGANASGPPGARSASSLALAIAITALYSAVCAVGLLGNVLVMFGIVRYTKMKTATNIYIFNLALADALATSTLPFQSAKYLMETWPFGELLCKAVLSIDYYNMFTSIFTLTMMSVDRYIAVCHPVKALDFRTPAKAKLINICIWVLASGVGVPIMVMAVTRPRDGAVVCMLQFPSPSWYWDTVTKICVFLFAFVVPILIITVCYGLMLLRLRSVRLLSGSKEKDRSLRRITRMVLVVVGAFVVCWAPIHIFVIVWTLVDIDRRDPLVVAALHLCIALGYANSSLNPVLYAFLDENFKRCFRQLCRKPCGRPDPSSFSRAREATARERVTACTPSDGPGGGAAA
Chain of Mu-type opioid receptor (P35372 whole entry): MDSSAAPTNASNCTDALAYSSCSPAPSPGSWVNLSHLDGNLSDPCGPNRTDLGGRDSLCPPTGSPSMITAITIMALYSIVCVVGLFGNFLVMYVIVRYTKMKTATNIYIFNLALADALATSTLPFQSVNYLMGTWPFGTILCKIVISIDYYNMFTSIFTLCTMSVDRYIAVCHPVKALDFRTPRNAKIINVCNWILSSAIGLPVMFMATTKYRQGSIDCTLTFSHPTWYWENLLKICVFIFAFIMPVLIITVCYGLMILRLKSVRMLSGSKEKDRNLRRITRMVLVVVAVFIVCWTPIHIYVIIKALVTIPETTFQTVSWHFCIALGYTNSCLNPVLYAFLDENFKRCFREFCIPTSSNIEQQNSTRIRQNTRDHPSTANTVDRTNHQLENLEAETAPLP
T1 sequence (P41145 whole entry): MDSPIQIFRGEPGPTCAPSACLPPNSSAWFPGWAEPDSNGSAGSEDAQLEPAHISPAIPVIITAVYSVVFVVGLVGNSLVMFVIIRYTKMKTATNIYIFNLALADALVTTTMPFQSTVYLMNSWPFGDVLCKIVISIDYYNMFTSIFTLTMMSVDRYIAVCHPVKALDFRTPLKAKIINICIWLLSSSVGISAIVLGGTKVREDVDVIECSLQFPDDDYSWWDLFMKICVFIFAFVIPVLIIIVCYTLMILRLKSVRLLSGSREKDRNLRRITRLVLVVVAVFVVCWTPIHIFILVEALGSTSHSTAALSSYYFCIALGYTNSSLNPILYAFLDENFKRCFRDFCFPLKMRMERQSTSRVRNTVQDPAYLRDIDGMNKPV

On to `CCOC(=O)c1ccc([C@@H]2C[C@]3(C)[C@H]4C(=O)[C@@H](OC(C)=O)C[C@@H](C(=O)OC)[C@]4(C)CC[C@H]3C(=O)O2)cc1C(=O)OCC`, for which the Ratio Ki in assay [1] was more than 22; in assay [3], more than 13. For the same compound, the Ki is more than 3000 nM in assay [2], more than 5000 nM in assay [4] and 228 nM in assay [5].
For `COC(=O)[C@@H]1C[C@H](OC(C)=O)C(=O)[C@H]2[C@@]1(C)CC[C@H]1C(=O)O[C@H](C3=CC4OC3C3C5OC(c6c5c5ccccc5c(=O)c5ccccc65)C43)C[C@]21C` (mixture of isomers), the Ratio Ki in assay [1] was more than 17; in assay [3], more than 0.2. The figures for the Ki in assay [2], in assay [4] and in assay [5] were more than 2700 nM, more than 5200 nM and more than 13000 nM, respectively.
As to `COC(=O)[C@@H]1C[C@H](OC(C)=O)C(=O)[C@H]2[C@@]1(C)CC[C@H]1C(=O)O[C@H](C3=CC4OC3C3C4C4OC3(C)c3c4c4ccccc4c(=O)c4ccccc34)C[C@]21C` (some centres not stated), the Ratio Ki was more than 17 in assay [1] and more than 6 in assay [3]. Moreover, the results for the Ki in assay [2], in assay [4] and in assay [5] were more than 1700 nM, more than 5000 nM and 290 nM, respectively.
The like results for `COC(=O)c1ccc([C@@H]2C[C@]3(C)[C@H]4C(=O)[C@@H](OC(C)=O)C[C@@H](C(=O)OC)[C@]4(C)CC[C@H]3C(=O)O2)cc1C(=O)OC` were, in that order, more than 17, more than 8, more than 3000 nM, more than 5000 nM and 286 nM.
Regarding `COC(=O)[C@@H]1C[C@H](OC(C)=O)C(=O)[C@H]2[C@@]1(C)CC[C@H]1C(=O)O[C@H](C3=CC4OC3c3ccccc34)C[C@]21C` (some centres not stated), the Ratio Ki in assay [1] was more than 13; in assay [3], more than 3. Besides, the Ki in assay [2] was more than 2500 nM; in assay [4], more than 10000 nM; in assay [5], 790 nM.
With `CCOC(=O)C1=C(C(=O)OCC)C2OC1C=C2[C@@H]1C[C@]2(C)[C@H]3C(=O)[C@@H](OC(C)=O)C[C@@H](C(=O)OC)[C@]3(C)CC[C@H]2C(=O)O1` (some centres not stated), the Ratio Ki in assay [1] was 19; in assay [3], more than 25. The results for the Ki in assay [2], in assay [4] and in assay [5] were more than 3200 nM, 2260 nM and 120 nM, respectively. In addition, the Emax in assay [6] stood at 90%.
With `COC(=O)[C@@H]1C[C@H](OC(C)=O)C(=O)[C@H]2[C@@]1(C)CC[C@H]1C(=O)O[C@H](c3ccc4ccccc4c3)C[C@]21C`, the Ratio Ki in assay [1] was more than 0.6; in assay [3] it was more than 0.4. In addition, the Ki was more than 3000 nM in assay [2], more than 5000 nM in assay [4] and more than 8000 nM in assay [5].
As to `COC(=O)C1=C(C(=O)OC)C2OC1C=C2[C@@H]1C[C@]2(C)[C@H]3C(=O)[C@@H](OC(C)=O)C[C@@H](C(=O)OC)[C@]3(C)CC[C@H]2C(=O)O1` (some centres not stated), the Ratio Ki in assay [1] was more than 83; in assay [3], more than 80. Also, the Ki in assay [2] is more than 4800 nM; in assay [4], more than 5000 nM; in assay [5], 60 nM. In addition, the Emax in assay [6] amounted to 100%.
